Test results from patent US20240374581A1, “SALT TYPES OF TRICYCLIC TETRAHYDRO ISOQUINOLINE DERIVATIVE” (JIANGSU HENGRUI PHARMACEUTICALS CO., LTD., priority 2021, published 2024).

Columns and labels:
[1] = Hygroscopicity study (DVS); assay type: physicochemical; conditions: 25° C.; for Hygroscopicity grade: 0% RH-80.0% RH; for Hygroscopicity 0% RH-80.0% RH / Hygroscopicity 0.0% RH-95.0% RH: DVS
Protocol: DVS refers to dynamic vapor sorption: The measurement was conducted on SMS DVS Advantage; at 25° C., the humidity was changed as follows: 50%-95%-0%-95%-50%, in steps of 10% (5% for the last step) (specific humidity ranges are shown in corresponding patterns, and those listed here were used in most cases); the criterion was dm/dt≤0.002%.
The measurement was conducted with a Surface Measurement Systems intrinsic at 25° C., starting from 50% humidity in humidity range of 0%-95%, in steps of 10%; the criterion was dM/dT≤0.002% and TMAX of 360 min in two cycles.

[2] = Long-term/accelerated stability; assay type: physicochemical; conditions: for Crystal form: up to 3 months; for physical and chemical stability (conclusion): long-term/accelerated study for 3 months
[3] = Influencing factor stability study; conditions: for physical and chemical stability (conclusion): influencing factors

## O=S(=O)(O)O.[2H]C1([2H])Oc2cc3c(cc2O1)[C@@H](c1ccc(NC2CN(CCCF)C2)cn1)N(CC(F)(F)CO)[C@H](C)C3 [Crystal form A of sulfate]
[1]
  Hygroscopicity grade: hygroscopic
  Crystal form after DVS: Deliquescence
  Hygroscopicity 0% RH-80.0% RH: 13.3%
  Hygroscopicity 0.0% RH-95.0% RH: 44.1%
[1]; listed as crystal form A
  Crystal form after DVS: deliquesced
[2]; 25° C./60% RH
  Purity (%) 1 month: 98.9%
  Purity (%) 2 months: 98.7%
  Purity (%) 3 months: 98.8%
  Purity (%) 7 days: 99.0%
  Purity (%) 14 days: 98.9%
  Purity (%) Initial: 98.9%
  Crystal form: Unchanged
[2]; 40° C./75% RH
  Purity (%) 1 month: 98.7%
  Purity (%) 2 months: 98.2%
  Purity (%) 3 months: 98.1%
  Purity (%) 7 days: 99.2%
  Purity (%) 14 days: 98.9%
  Purity (%) Initial: 98.9%
  Crystal form: Unchanged
[2]
  physical and chemical stability (conclusion): good physical and chemical stability
[3]; 40° C., 1 month
  Crystal form: Crystal form A
  Purity (%): 98.0%
[3]; 40° C., 5 days
  Crystal form: Crystal form A
  Purity (%): 98.8%
[3]; 40° C., 10 days
  Crystal form: Crystal form A
  Purity (%): 98.7%
[3]; 60° C., 1 month
  Crystal form: Crystal form A
  Purity (%): 97.3%
[3]; 60° C., 5 days
  Crystal form: Crystal form A
  Purity (%): 98.7%
[3]; 60° C., 10 days
  Crystal form: Crystal form A
  Purity (%): 98.6%
[3]; 75% RH and 92.5% RH, 30 days
  behaviour under the high-humidity conditions (conclusion): deliquesced
[3]; 75% RH, 1 month
  Crystal form: Deliquescence
  Purity (%): 94.8%
[3]; 75% RH, 5 days
  Crystal form: Deliquescence
  Purity (%): 97.8%
[3]; 75% RH, 10 days
  Crystal form: Deliquescence
  Purity (%): 96.6%
[3]; 92.5% RH, 1 month
  Crystal form: Deliquescence
  Purity (%): 95.1%
[3]; 92.5% RH, 5 days
  Crystal form: Deliquescence
  Purity (%): 98.1%
[3]; 92.5% RH, 10 days
  Crystal form: Deliquescence
  Purity (%): 97.3%
[3]; 4500 Lux, 1 month
  Crystal form: Crystal form A
  Purity (%): 92.9%
[3]; 4500 Lux, 5 days
  Crystal form: Crystal form A
  Purity (%): 97.4%
[3]; 4500 Lux, 10 days
  Crystal form: Crystal form A
  Purity (%): 96.0%
[3]; Initial, 0 days
  Crystal form: Crystal form A
  Purity (%): 98.9%
[3]; 30 days
  physical and chemical stability (conclusion): good physical and chemical stability under other conditions except the lighting condition

## O=P(O)(O)O.O=P(O)(O)O.O=P(O)(O)O.[2H]C1([2H])Oc2cc3c(cc2O1)[C@@H](c1ccc(NC2CN(CCCF)C2)cn1)N(CC(F)(F)CO)[C@H](C)C3 [Crystal form I of phosphate]
[1]
  Hygroscopicity grade: slightly
  Crystal form after DVS: Did not change
  Hygroscopicity 0% RH-80.0% RH: 1.2%
  Hygroscopicity 0.0% RH-95.0% RH: 7.1%
[1]; listed as crystal form I
  Crystal form after DVS: did not change
[2]; 25° C./60% RH
  Purity (%) 1 month: 99.3%
  Purity (%) 2 months: 99.3%
  Purity (%) 3 months: 99.2%
  Purity (%) 7 days: 99.4%
  Purity (%) 14 days: 99.5%
  Purity (%) Initial: 99.4%
  Crystal form: Unchanged
[2]; 40° C./75% RH
  Purity (%) 1 month: 99.3%
  Purity (%) 2 months: 99.2%
  Purity (%) 3 months: 99.0%
  Purity (%) 7 days: 99.5%
  Purity (%) 14 days: 99.5%
  Purity (%) Initial: 99.4%
  Crystal form: Unchanged
[2]
  physical and chemical stability (conclusion): good physical and chemical stability
[3]; 40° C., 1 month
  Crystal form: Crystal form I
  Purity (%): 99.1%
[3]; 40° C., 5 days
  Crystal form: Crystal form I
  Purity (%): 99.3%
[3]; 40° C., 10 days
  Crystal form: Crystal form I
  Purity (%): 99.1%
[3]; 60° C., 1 month
  Crystal form: Crystal form I
  Purity (%): 98.8%
[3]; 60° C., 5 days
  Crystal form: Crystal form I
  Purity (%): 99.1%
[3]; 60° C., 10 days
  Crystal form: Crystal form I
  Purity (%): 99.1%
[3]; 75% RH, 1 month
  Crystal form: Crystal form I
  Purity (%): 99.4%
[3]; 75% RH, 5 days
  Crystal form: Crystal form I
  Purity (%): 99.3%
[3]; 75% RH, 10 days
  Crystal form: Crystal form I
  Purity (%): 99.4%
[3]; 92.5% RH, 1 month
  Crystal form: Crystal form I
  Purity (%): 99.3%
[3]; 92.5% RH, 5 days
  Crystal form: Crystal form I
  Purity (%): 99.3%
[3]; 92.5% RH, 10 days
  Crystal form: Crystal form I
  Purity (%): 99.3%
[3]; 4500 Lux, 1 month
  Crystal form: Crystal form I
  Purity (%): 98.4%
[3]; 4500 Lux, 5 days
  Crystal form: Crystal form I
  Purity (%): 98.9%
[3]; 4500 Lux, 10 days
  Crystal form: Crystal form I
  Purity (%): 98.8%
[3]; Initial, 0 days
  Crystal form: Crystal form I
  Purity (%): 99.4%
[3]; 30 days
  physical and chemical stability (conclusion): good physical and chemical stability
